Experimental data: US5624906A, “Oral hygiene compositions comprising heteroatom containing alkyl aldonamide compounds” (Lever Brothers Company, Division of Conopco, Inc., priority 1994, dated 1997)

Experiments:
[1] = Krafft point; type: physicochemical; conditions: for Krafft Point (0.1%): 0.1% in water; for Krafft Point (1.0%): 1.0% in water
Protocol: The temperature at and above which surfactants begin to form micelles instead of precipitates is referred to as the Krafft point (Tk) and at this temperature the solubility of a surfactant becomes equal to its CMC (numerical value at which micelles are formed).
The Krafft point was measured by preparing 650 ml of a 0.1% or 1.0% dispersion of aldonamide in water by weight. If the surfactant was soluble at room temperature, the solution was slowly cooled to 0° C. […] (less than zero). If it precipitated out of solution, the temperature at which precipitation occurs was taken as the Krafft point.
If the surfactant was insoluble at room temperature, the dispersion was slowly heated until the solution became homogeneous. It was then slowly cooled until precipitation occurred. The temperature at which the surfactant precipitates out of solution upon cooling was taken as the Krafft point.

[2] = Ross-Miles foam height (Examples 81-84); type: physicochemical; conditions: for Foam Height Initial / Foam Height Final: 0.1% aldonamide, 40° C. (or 5-10° C. above Krafft point), 0 ppm hardness; for Foam Height Final: after 10 minutes; for Solubility: 0.1% in water
Protocol: In the Ross-Miles method, 200 mL of a surfactant solution contained in a pipette of specified dimensions with a 2.9-mm-i.d. orifice is allowed to fall 90 cm onto 50 mL of the same solution contained in a cylindrical vessel maintained at a given temperature by means of a water jacket. The height of the foam produced in the cylindrical vessel is read immediately after all the solution has run out of the pipette and then again after a given amount of time.
Using this method, the foam production (initial foam height in mm) and foam stability (final foam height after 10 minutes in mm) were measured at 0.1% aldonamide concentration, 40° C. and 0 ppm (parts per million) hardness.

| Molecule | Krafft Point (0.1%) [1] [°C] | Krafft Point (1.0%) [1] [°C] | also measured |
| --- | --- | --- | --- |
| CCCCCCCCCCCCOC(=O)C(C)NC(=O)[C@H](O)[C@@H](O)[C@H](O)[C@H](O)CO (mixture of isomers) [N-D-Gluconyl C12 DL-Alaninate, N-D-Gluconyl Dodecyl DL-Alaninate] | 53 | – | – |
| CCCCCCCNC(=O)[C@H](O)[C@@H](O)[C@H](O)[C@H](O)CO [C7 D-Gluconamide] | < 0 | – | Foam Height Initial [2]: 0 mm; Foam Height Final [2]: 0 mm |
| CCCCCCCCNC(=O)[C@H](O)[C@@H](O)[C@H](O)[C@H](O)CO [C8 D-Gluconamide] | 12 | – | Foam Height Initial [2]: 0 mm; Foam Height Final [2]: 0 mm |
| CCCCCCCCCNC(=O)[C@H](O)[C@@H](O)[C@H](O[C@@H]1O[C@H](CO)[C@H](O)[C@H](O)[C@H]1O)[C@H](O)CO [C9 D-Lactobionamide, nonyl D-lactobionamide] | – | 42 | Foam Height Initial [2]: 0 mm; Foam Height Final [2]: 0 mm |
| CCCCCCCCCCCNC(=O)[C@H](O)[C@@H](O)[C@H](O)[C@H](O)CO [C11 D-Gluconamide] | 87 | – | – |
| CCCCCCCCCCCNC(=O)[C@H](O)[C@@H](O)[C@H](O[C@@H]1O[C@H](CO)[C@H](O)[C@H](O)[C@H]1O)[C@H](O)CO [C11 D-Lactobionamide] | – | 61 | Foam Height Initial [2]: 0 mm; Foam Height Final [2]: 0 mm |
| CCCCCCCCCCCCNC(=O)[C@H](O)[C@@H](O)[C@@H](O)[C@H](O)CO [C12 D-Galactonamide] | > 100 | – | Solubility [2]: Insoluble |
| CCCCCCCCCCCCNC(=O)[C@H](O)[C@H](O)[C@@H](O)[C@H](O)[C@H](O)CO [C12 D-Glucoheptonamide] | 91 | – | – |
| CCCCCCCCCCCCNC(=O)C(O)C(O)C(O)C(O)C(O)C(O)CO [C12 D-Glucooctonamide] | < 86 | – | – |
| CCCCCCCCCCCCNC(=O)[C@H](O)[C@H](O)[C@@H](O)[C@@H](O)[C@H](O)CO [C12 D-Glycero-L-Mannoheptonamide] | > 100 | – | Solubility [2]: Insoluble |
| CCCCCCCCCCCCNC(=O)[C@H](O)[C@@H](O)[C@H](O[C@@H]1O[C@H](CO)[C@H](O)[C@H](O)[C@H]1O)[C@H](O)CO [C12 D-Lactobionamide] | – | 38 | Foam Height Final [2]: 20 mm |
| CCCCCCCCCCCCNC(=O)[C@@H](O)[C@H](O)[C@H](O)[C@@H](O)CO [C12 L-Galactonamide] | > 100 | – | Solubility [2]: Insoluble |
| CCCCCCCCCCCCNC(=O)[C@@H](O)[C@H](O)[C@@H](O)[C@@H](O)CO [C12 L-Gluconamide] | 91 | – | – |
| CCCCCCCCCCCCNC(=O)[C@H](O)[C@H](O)[C@@H](O)[C@@H](O)CO [C12 L-Mannonamide] | > 100 | – | Solubility [2]: Insoluble |
| CCCCCCCCCCCCOCCCNC(=O)[C@H](O)[C@H](O)[C@@H](O)[C@H](O)[C@H](O)CO [C12 Oxypropyl D-Glucoheptonamide] | 73 | – | Foam Height Final [2]: 80 mm |
| CCCCCCCCCCCCOCCCNC(=O)[C@H](O)[C@@H](O)[C@H](O[C@H]1O[C@H](CO)[C@@H](O)[C@H](O)[C@H]1O)[C@H](O)CO [C12 Oxypropyl D-Maltobionamide, dodecyloxypropyl D-maltobionamide] | – | < 0 | – |
| CCCCCCCCCCCCNC(=O)[C@H](O)[C@H](O)[C@H](O)CO [C12 Ribonamide, dodecyl D-ribonamide] | 54 | – | – |

| Molecule | Krafft Point (0.1%) [1] [°C] | Krafft Point (1.0%) [1] [°C] | also measured |
| --- | --- | --- | --- |
| CCCCCCCCCCCCCNC(=O)[C@H](O)[C@@H](O)[C@H](O[C@@H]1O[C@H](CO)[C@H](O)[C@H](O)[C@H]1O)[C@H](O)CO [C13 D-Lactobionamide] | – | 70 | Foam Height Final [2]: 78 mm |
| CCCCCCCCCCCCCCNC(=O)[C@H](O)[C@@H](O)[C@H](O)[C@H](O)CO [C14 D-Gluconamide] | > 100 | – | Solubility [2]: Insoluble |
| CCCCCCCCCCCCCCNC(=O)[C@H](O)[C@@H](O)[C@H](O[C@@H]1O[C@H](CO)[C@H](O)[C@H](O)[C@H]1O)[C@H](O)CO [C14 D-Lactobionamide] | – | 18 | Foam Height Final [2]: 59 mm |
| CCCCCCCCCCCCCCNC(=O)[C@H](O)[C@@H](O)[C@H](O[C@H]1O[C@H](CO)[C@@H](O)[C@H](O)[C@H]1O)[C@H](O)CO [C14 D-Maltobionamide] | – | 46 | Foam Height Final [2]: 140 mm |
| CCCCCCCCCCCCCCOCCCNC(=O)[C@H](O)[C@@H](O)[C@H](O)[C@H](O)CO [C14 Oxypropyl D-Gluconamide] | 53 | – | – |
| CCCCCCCCCCCCCCOCCCNC(=O)[C@H](O)[C@@H](O)[C@H](O[C@@H]1O[C@H](CO)[C@H](O)[C@H](O)[C@H]1O)[C@H](O)CO [C14 Oxypropyl D-Lactobionamide, tetradecyloxypropyl D-lactobionamide] | – | < 0 | – |
| CCCCCCCCCCCCCCCNC(=O)[C@H](O)[C@@H](O)[C@H](O[C@@H]1O[C@H](CO)[C@H](O)[C@H](O)[C@H]1O)[C@H](O)CO [C15 D-Lactobionamide] | – | 84 | – |
| CCCCCCCCCCCCCCCCNC(=O)[C@H](O)[C@@H](O)[C@H](O)[C@H](O)CO [C16 D-Gluconamide] | > 100 | – | Solubility [2]: Insoluble |
| CCCCCCCCCCCCCCCCCCNC(=O)[C@H](O)[C@@H](O)[C@H](O[C@@H]1O[C@H](CO)[C@H](O)[C@H](O)[C@H]1O)[C@H](O)CO [C18 D-Lactobionamide] | – | 82 | – |
| CCCCCCCCCCCCOC(=O)CNC(=O)[C@H](O)[C@@H](O)[C@H](O[C@@H]1O[C@H](CO)[C@H](O)[C@H](O)[C@H]1O)[C@H](O)CO [D-Lactobionyl C12 Glycinate, N-D-lactobionyl dodecyl glycinate] | – | < 0 | – |
| CCCCCCCCCCCCOC(=O)CCNC(=O)[C@H](O)[C@@H](O)[C@H](O[C@@H]1O[C@H](CO)[C@H](O)[C@H](O)[C@H]1O)[C@H](O)CO [D-Lactobionyl C12 β-Alaninate, N-D-lactobionyl dodecyl β-alaninate] | – | < 0 | – |
| CCCCCCCCCCCCOCCOCCOC(=O)CNC(=O)[C@H](O)[C@@H](O)[C@H](O)[C@H](O)CO [N-D-Gluconyl C12 Di(oxyethyl) Glycinate, N-D-Gluconyl Dodecyldi(oxyethyl) Glycinate] | < 0 | – | – |
| CCCCCCCCCCCC(=O)OCCNC(=O)[C@H](O)[C@@H](O)[C@H](O)[C@H](O)CO [N-D-Gluconyl C12 Ester of Ethanolamine, N-D-gluconyl dodecyl ester of ethanolamine] | 63 | – | – |
| CCCCCCCCCCCCOC(=O)CNC(=O)[C@H](O)[C@@H](O)[C@H](O)[C@H](O)CO [N-D-Gluconyl C12 Glycinate, N-D-gluconyl dodecyl glycinate] | 63 | – | – |
| CCCCCCCC/C=C\CCCCCCCCNCCCNC(=O)[C@H](O)[C@@H](O)[C@H](O[C@@H]1O[C@H](CO)[C@H](O)[C@H](O)[C@H]1O)[C@H](O)CO [Oleylaminopropyl D-Lactobionamide, oleylaminopropyl D-lactobionamide] | – | < 0 | – |
| soyaaminopropyl D-gluconamide | < 18 | – | – |
